According to US6525059B1, “Substituted pyrazoles as p38 kinase inhibitors” (G. D. Searle & Company, priority 1998, dated 2003):
Read-outs that look alike come from different tables or passages of the source.

How the values were obtained:
TNF-α = assay: LPS stimulation of TNF production by U937 cells; format: cell-based, human; conditions: for IC50 / inhibition at 1 µM: Homo sapiens; for inhibition at 1 µM: U-937, @ 1.0 uM, read-out: U937 Cell % inhib @ conc.
Description: Fifty million cells in 100 ml media were induced to terminal monocytic differentiation by 24 hour incubation with 20 ng/ml phorbol 12-myristate 13-acetate (Sigma). The cells were washed by centrifugation (200×g for 5 min) and resuspended in 100 ml fresh medium. After 24-48 hours, the cells were harvested, centrifuged, and resuspended in culture medium at 2 million cells/ml.
Compounds were prepared as 10 mM stock solutions in DMSO and diluted in culture medium to yield a final DMSO concentration of 0.1% in the cell assay. LPS (E coli, 100 ng/ml final concentration) was then added at a volume of 0.02 ml. After 4 hour incubation at 37° C., the amount of TNF-α released in the culture medium was quantitated by ELISA. Inhibitory potency is expressed as IC50 (μM).
In vitro whole cell assay for measuring the ability of the compounds to inhibit TNF production in human U937 cells stimulated with LPS are shown in the column identified as: […]

human p38 kinase alpha = target: T1, human p38 kinase alpha (Homo sapiens, UniProt Q16539); assay: p38 kinase in vitro assay, phosphorylation of biotinylated PHAS-I with gamma 32P-ATP; format: biochemical; conditions: read-out: P38 alpha kinase IC50
T1 construct: The coding region of the human p38a cDNA was obtained by PCR-amplification from RNA isolated from the human monocyte cell line THP.1; GST (N); made in house; host or cells: E. coli DH10B
T1 sequence (Q16539 whole entry): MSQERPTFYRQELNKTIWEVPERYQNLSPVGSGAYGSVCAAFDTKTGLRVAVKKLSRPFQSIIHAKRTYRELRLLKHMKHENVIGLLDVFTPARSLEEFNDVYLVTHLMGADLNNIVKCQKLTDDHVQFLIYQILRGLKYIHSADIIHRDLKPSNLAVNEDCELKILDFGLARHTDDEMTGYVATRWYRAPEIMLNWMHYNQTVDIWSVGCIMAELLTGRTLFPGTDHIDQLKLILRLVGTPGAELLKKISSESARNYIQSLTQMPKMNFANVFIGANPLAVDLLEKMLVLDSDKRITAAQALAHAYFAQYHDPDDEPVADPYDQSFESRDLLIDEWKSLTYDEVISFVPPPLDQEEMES
Description: The ability of compounds to inhibit human p38 kinase alpha was evaluated using two in vitro assay methods. In the first method activated human p38 kinase alpha phosphorylates a biotinylated substrate, PHAS-I (phosphorylated heat and acid stable protein-insulin inducible), in the presence of gamma ^32P-ATP (^32P-ATP). PHAS-I was biotinylated prior to the assay and provides a means of capturing the substrate which is phosphorylated during the assay. p38 Kinase was activated by MKK6. Compounds were tested in 10 fold serial dilutions over the range of 100 μM to 0.001 μM using 1% DMSO. Each concentration of inhibitor was tested in triplicate.
All reactions were carried out in 96 well polypropylene plates. Each reaction well contained 25 mM HEPES pH 7.5, 10 mM magnesium acetate and 50 μM unlabeled ATP. […] The reaction proceeded either for one hour or overnight at 30° C.
Following incubation, 20 μl of reaction mixture was transferred to a high capacity streptavidin coated filter plate (SAM-streptavidin-matrix, Promega) prewetted with phosphate buffered saline. […] Filter plates were air dried and 20 μl of scintillant was added. The plates were sealed and counted.

| IC50 (human p38 kinase alpha) [nM] | SMILES | inhibition at 1 µM (TNF-α) [%] | further results |
| --- | --- | --- | --- |
| – | Cc1ccc(-c2[nH]nc(C)c2-c2ccncc2)cc1 [Example A-5] | – | IC50 (TNF-α; U-937, LPS-stimulated U937 cells, read-out: U937 Cell Assay IC50): 274 nM |
| – | OCCn1ncc(-c2ccnc(NCc3ccc(F)cc3)c2)c1-c1ccc(F)cc1 [Example A-290, 5-(4-fluorophenyl)-4-[2-[[(4-fluorophenyl)methyl]amino]-4-pyridinyl]-1H-pyrazole-1-ethanol] | – | IC50 (TNF-α; U-937, LPS-stimulated U937 cells, read-out: U937 IC50): 6020 nM |
| – | O=C(NCc1[nH]nc(-c2ccc(F)cc2)c1-c1ccncc1)c1cccs1 [Example B-0193] | 6 | – |
| – | O=C(NCc1[nH]nc(-c2ccc(F)cc2)c1-c1ccncc1)c1cccs1 [Example B-0208] | – | IC50 (TNF-α; U-937, TNF production, LPS-stimulated human U937 cells, read-out: U937 Cell IC50): > 1000 nM |
| – | O=S(=O)(NCc1[nH]nc(-c2ccc(F)cc2)c1-c1ccncc1)c1ccccc1Br [Example B-0234] | 68 | – |
| – | O=S(=O)(NCc1[nH]nc(-c2ccc(F)cc2)c1-c1ccncc1)c1ccc(C(F)(F)F)cc1 [Example B-0237] | 60 | – |
| – | Cc1ccccc1S(=O)(=O)NCc1[nH]nc(-c2ccc(F)cc2)c1-c1ccncc1 [Example B-0245] | 24 | – |
| – | Cc1noc(C)c1C(=O)NCc1[nH]nc(-c2ccc(F)cc2)c1-c1ccncc1 [Example B-0304] | 28 | – |
| – | C[C@@H](NC(=O)c1ccccn1)c1[nH]nc(-c2ccc(F)cc2)c1-c1ccncc1 [Example B-0379] | 24 | – |
| – | C[C@@H](NS(=O)(=O)c1ccccc1)c1[nH]nc(-c2ccc(F)cc2)c1-c1ccncc1 [Example B-0386] | 54 | – |
| – | C[C@@H](NS(=O)(=O)/C=C/c1ccccc1)c1[nH]nc(-c2ccc(F)cc2)c1-c1ccncc1 [Example B-0388] | 36 | – |
| – | C[C@@H](NC(=O)N(C)c1ccccc1)c1[nH]nc(-c2ccc(F)cc2)c1-c1ccncc1 [Example B-0409] | 30 | – |
| – | CCN(CC)C(=O)N[C@H](C)c1[nH]nc(-c2ccc(F)cc2)c1-c1ccncc1 [Example B-0420] | 49 | – |
| – | COc1ccc(NC(=O)N[C@H](C)c2[nH]nc(-c3ccc(F)cc3)c2-c2ccncc2)c(OC)c1 [Example B-0422] | 40 | – |
| – | C[C@@H](NS(=O)(=O)c1ccc(Br)cc1)c1[nH]nc(-c2ccc(F)cc2)c1-c1ccncc1 [Example B-0432] | 89 | – |
| – | C[C@@H](NS(=O)(=O)c1ccc(Cl)cc1)c1[nH]nc(-c2ccc(F)cc2)c1-c1ccncc1 [Example B-0433] | 92 | – |
| – | C[C@@H](NS(=O)(=O)c1ccc2ccccc2c1)c1[nH]nc(-c2ccc(F)cc2)c1-c1ccncc1 [Example B-0440] | 63 | – |
| – | C[C@@H](NS(=O)(=O)Cc1ccccc1[N+](=O)[O-])c1[nH]nc(-c2ccc(F)cc2)c1-c1ccncc1 [Example B-0442] | 91 | – |
| – | C[C@@H](NS(=O)(=O)c1cccc(Cl)c1Cl)c1[nH]nc(-c2ccc(F)cc2)c1-c1ccncc1 [Example B-0445] | 83 | – |
| – | C[C@@H](NS(=O)(=O)c1ccccc1Br)c1[nH]nc(-c2ccc(F)cc2)c1-c1ccncc1 [Example B-0454] | 80 | – |
| – | C[C@@H](NS(=O)(=O)c1cccc(Cl)c1)c1[nH]nc(-c2ccc(F)cc2)c1-c1ccncc1 [Example B-0462] | 97 | – |
| – | C[C@@H](NS(=O)(=O)c1cc(Cl)cc(Cl)c1)c1[nH]nc(-c2ccc(F)cc2)c1-c1ccncc1 [Example B-0464] | 91 | – |
| – | Cc1cccc(Cl)c1S(=O)(=O)N[C@H](C)c1[nH]nc(-c2ccc(F)cc2)c1-c1ccncc1 [Example B-0467] | 77 | – |
| – | Cc1ccc(C(=O)N[C@H](C)c2[nH]nc(-c3ccc(F)cc3)c2-c2ccncc2)cc1 [Example B-0494] | – | U937 Cell % inhib @ conc. (TNF-α; @ 1.0 uM): 30.0% @ 1.0 uM |
| – | C[C@@H](NC(=O)c1cccc(C#N)c1)c1[nH]nc(-c2ccc(F)cc2)c1-c1ccncc1 [Example B-0499] | 37 | – |

| IC50 (human p38 kinase alpha) [nM] | SMILES | inhibition at 1 µM (TNF-α) [%] | further results |
| --- | --- | --- | --- |
| 420 | Cc1cccc(C(=O)N[C@H](C)c2[nH]nc(-c3ccc(F)cc3)c2-c2ccncc2)c1 [Example B-0515] | – | – |
| 370 | C[C@@H](NC(=O)c1ccc(Cl)cc1Cl)c1[nH]nc(-c2ccc(F)cc2)c1-c1ccncc1 [Example B-0516] | – | – |
| – | C[C@@H](NC(=O)c1cccc(F)c1F)c1[nH]nc(-c2ccc(F)cc2)c1-c1ccncc1 [Example B-0518] | 64 | – |
| – | C[C@@H](NC(=O)c1ccc(F)cc1F)c1[nH]nc(-c2ccc(F)cc2)c1-c1ccncc1 [Example B-0524] | 77 | – |
| 160 | C[C@@H](NC(=O)c1cccc(Cl)c1)c1[nH]nc(-c2ccc(F)cc2)c1-c1ccncc1 [Example B-0525] | – | – |
| – | Cc1noc(C)c1C(=O)N[C@H](C)c1[nH]nc(-c2ccc(F)cc2)c1-c1ccncc1 [Example B-0529] | 73 | – |
| 460 | CC(=O)NC(C)c1[nH]nc(-c2ccc(F)cc2)c1-c1ccncc1 (stereo not drawn) [Example B-0536] | – | – |
| 1080 | Cc1ccc(C(=O)NC(C)c2[nH]nc(-c3ccc(F)cc3)c2-c2ccncc2)cc1 (stereo not drawn) [Example B-0551] | – | – |
| 1370 | COc1cccc(C(=O)NC(C)c2[nH]nc(-c3ccc(F)cc3)c2-c2ccncc2)c1 (stereo not drawn) [Example B-0557] | – | – |
| 250 | CC(NS(=O)(=O)c1ccccc1C#N)c1[nH]nc(-c2ccc(F)cc2)c1-c1ccncc1 (stereo not drawn) [Example B-0627] | – | – |
| 1250 | COc1ccc(Cl)cc1S(=O)(=O)NC(C)c1[nH]nc(-c2ccc(F)cc2)c1-c1ccncc1 (stereo not drawn) [Example B-0655] | – | – |
| 1140 | CC(NS(=O)(=O)c1ccc(-c2ccccc2)cc1)c1[nH]nc(-c2ccc(F)cc2)c1-c1ccncc1 (stereo not drawn) [Example B-0658] | – | – |
| 6590 | CC(NC(=O)c1cccc(C(F)(F)F)c1)c1[nH]nc(-c2ccc(F)cc2)c1-c1ccncc1 (stereo not drawn) [Example B-0672] | – | – |
| 62 | CC(NC(=O)c1cc(F)cc(F)c1)c1[nH]nc(-c2ccc(F)cc2)c1-c1ccncc1 (stereo not drawn) [Example B-0679] | – | – |
| 660 | CC(NC(=O)c1ccc(F)cc1C(F)(F)F)c1[nH]nc(-c2ccc(F)cc2)c1-c1ccncc1 (stereo not drawn) [Example B-0688] | – | – |
| 3200 | CCCS(=O)(=O)NC(Cc1ccccc1)c1[nH]nc(-c2ccc(F)cc2)c1-c1ccncc1 (stereo not drawn) [Example B-0715] | – | – |
| 4300 | CCS(=O)(=O)NC(Cc1ccccc1)c1[nH]nc(-c2ccc(F)cc2)c1-c1ccncc1 (stereo not drawn) [Example B-0717] | – | – |
| 60 | NC(=O)NC(Cc1ccccc1)c1[nH]nc(-c2ccc(F)cc2)c1-c1ccncc1 (stereo not drawn) [Example B-0724] | – | – |
| 15 | CS(=O)(=O)NC(Cc1ccccc1)c1[nH]nc(-c2ccc(F)cc2)c1-c1ccncc1 (stereo not drawn) [Example B-0763] | – | – |
| 12700 | NC(=O)NC(Cc1ccccc1)c1[nH]nc(-c2ccc(F)cc2)c1-c1ccncc1 (stereo not drawn) [Example B-0769] | – | – |
| – | Cc1noc(C)c1S(=O)(=O)NCCCc1[nH]nc(-c2ccc(F)cc2)c1-c1ccncc1 [Example B-1281] | – | U937 Cell % inhib @ conc. (uM) (TNF-α; @ 1.0 uM, TNF production, LPS-stimulated U937 cells): 8.0% @ 1.0 uM |
| 700 | O=C(NCCCc1[nH]nc(-c2ccc(F)cc2)c1-c1ccncc1)c1ccccc1Br [Example B-1355] | – | – |
| 550 | N#Cc1cccc(C(=O)N2CCC(c3[nH]nc(-c4ccc(F)cc4)c3-c3ccncc3)CC2)c1 [Example B-1396] | – | – |
| 920 | O=C(c1ccccc1Br)N1CCC(c2[nH]nc(-c3ccc(F)cc3)c2-c2ccncc2)CC1 [Example B-1398] | – | – |
| 6000 | O=C(O)CCc1[nH]nc(-c2ccc(F)cc2)c1-c1ccncc1 [Example C-135, 4-(4-(4-PYRIDYL)-3-(4-FLUOROPHENYL)PYRAZOLYL)PROPIONIC ACID] | – | – |

| SMILES | IC50 (human p38 kinase alpha) [nM] | inhibition at 1 µM (TNF-α) [%] | further results |
| --- | --- | --- | --- |
| Clc1ccc(-c2n[nH]c(C3CCNCC3)c2-c2ccncn2)cc1 [Example C-136] | 32 | – | – |
